Tests used:
nicotinic receptors = assay: 3H-epibatidin displacement studies in rats; assay type: in vivo
[1] = molecular target: T1, human α4β2 nicotinic receptors (Homo sapiens, UniProt P17787+P43681); assay: FLIPR fluorescence-based calcium assay, α4β2; assay type: cell-based; conditions: FLIPR calcium response relative to nicotine
T1 construct: expressed in transfected cells
Procedure: The level of agonist activity of 9-methyl-3-pyridin-3-yl-3,9-diaza-bicyclo[3.3.1]nonane was tested in functional fluorescence-based calcium assays using TE671 cells and HEK293 cells stably expressing human α6/α3β2β3^V273S, α3β4 and α4β2 nicotinic receptors.
Cells were plated on poly-D-lysine coated 384-well microtiter plates and were allowed to proliferate for 24 h. Dye loading was performed by incubating cells with 2 μM fluo-4/AM for 1.5 h at room temperature. Dye not taken up by cells was removed by aspiration followed by three washing cycles with 25 μl of NMDG Ringer buffer (in mM: 140 NMDG, 5 KCl, 1 MgCl2, 10 CaCl2, 10 HEPES, pH 7.4) after which the cells were kept in 25 μl of the same buffer. The microtiter plates were placed in a Fluoremetric Imaging Plate Reader (FLIPR) and subjected to test compound at various concentrations. Background subtracted compound-mediated calcium responses were normalized to 100 μM nicotine control responses and pEC50 as well as relative maximal efficacy values were determined.

[2] = tested on: primary dopaminergic neuronal culture; assay: Primary dopaminergic neuronal culture injured by MPP+, number of TH positive neurons; assay type: cell-based, rat; conditions: MPP+ 4 μM, 48H; compound 1 nM to 1 μM added 1H before intoxication
Text: Pregnant female Wistar rats of 15 days gestation was euthanized by cervical dislocation and the foetuses was removed from the uterus. Hereafter, the embryonic midbrains was removed and placed in ice-cold medium of Leibovitz containing 2% of Penicillin-Streptomycin and 1% of bovine serum albumin (BSA). Only the ventral portions of the mesencephalic flexure were used for the cell preparations as this is the region of the developing brain rich in dopaminergic neurons. The midbrains were dissociated by trypsinisation for 20 min at 37° C. (Trypsin EDTA 1X). The reaction was stopped by the addition of DULBECCO′S MODIFIED Eagle's medium (DMEM) containing DNAse I grade II (0.1 mg/ml) and 10% foetal calf serum (FCS). Cells were then mechanically dissociated by 3 passages through a 10 ml pipette. Cells was then centrifuged at 180×g for 10 min at 4° C. on a layer of BSA (3.5%) in L15 medium. The supernatant was discarded, and the cells of pellet were re-suspended in a defined culture medium consisting of Neurobasal supplemented with B27 (2%), L-glutamine (2 mM) and 2% of PS solution and 10 ng/ml BDNF and 1 ng/ml of Glial cell-derived neurotrophic factor (GDNF). Viable cells were counted in a Neunauer cytometer using the tryphan blue exclusion test. […]
Half of the medium was changed every 2 days with fresh medium. […] Following an additional 48H of incubation, the number of TH positive neurons were counted. […]

α6/α3β2β3^V273S receptor = molecular target: T2, α6/α3β2β3^V273S receptor (Homo sapiens, UniProt Q15825, V273S); assay: Oocyte two-electrode voltage-clamp electrophysiology, α6/α3β2β3V273S; assay type: cell-based; conditions: Xenopus laevis oocytes, fitted maximal current relative to acetylcholine; read-out: maximal efficacy compared to ACh
T2 construct: fused on or other part: P32297 (Neuronal acetylcholine receptor subunit alpha-3) P17787 (Neuronal acetylcholine receptor subunit beta-2)
T2 sequence (Q15825 26-239 limits assumed): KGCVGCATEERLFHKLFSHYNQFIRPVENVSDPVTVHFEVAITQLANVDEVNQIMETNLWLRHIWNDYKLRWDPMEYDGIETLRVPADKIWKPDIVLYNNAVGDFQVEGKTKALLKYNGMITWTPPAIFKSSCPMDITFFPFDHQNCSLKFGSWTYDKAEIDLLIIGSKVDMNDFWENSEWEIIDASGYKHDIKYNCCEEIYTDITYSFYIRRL
T2 sequence (P17787 26-502, further chain): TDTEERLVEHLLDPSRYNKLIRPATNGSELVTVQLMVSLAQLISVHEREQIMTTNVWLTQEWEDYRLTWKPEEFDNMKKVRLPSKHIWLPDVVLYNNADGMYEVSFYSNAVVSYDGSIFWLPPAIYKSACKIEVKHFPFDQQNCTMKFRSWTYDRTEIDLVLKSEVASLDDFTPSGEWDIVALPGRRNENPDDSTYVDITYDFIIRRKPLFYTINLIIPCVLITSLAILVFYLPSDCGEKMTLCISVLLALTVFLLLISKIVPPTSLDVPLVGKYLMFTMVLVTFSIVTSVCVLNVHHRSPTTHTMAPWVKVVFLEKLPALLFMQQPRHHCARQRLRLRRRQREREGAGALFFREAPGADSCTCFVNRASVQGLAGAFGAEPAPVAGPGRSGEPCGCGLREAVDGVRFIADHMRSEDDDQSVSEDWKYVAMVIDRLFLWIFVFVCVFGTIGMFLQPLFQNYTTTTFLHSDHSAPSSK
T2 sequence (Q05901 22-458 V273S, further chain): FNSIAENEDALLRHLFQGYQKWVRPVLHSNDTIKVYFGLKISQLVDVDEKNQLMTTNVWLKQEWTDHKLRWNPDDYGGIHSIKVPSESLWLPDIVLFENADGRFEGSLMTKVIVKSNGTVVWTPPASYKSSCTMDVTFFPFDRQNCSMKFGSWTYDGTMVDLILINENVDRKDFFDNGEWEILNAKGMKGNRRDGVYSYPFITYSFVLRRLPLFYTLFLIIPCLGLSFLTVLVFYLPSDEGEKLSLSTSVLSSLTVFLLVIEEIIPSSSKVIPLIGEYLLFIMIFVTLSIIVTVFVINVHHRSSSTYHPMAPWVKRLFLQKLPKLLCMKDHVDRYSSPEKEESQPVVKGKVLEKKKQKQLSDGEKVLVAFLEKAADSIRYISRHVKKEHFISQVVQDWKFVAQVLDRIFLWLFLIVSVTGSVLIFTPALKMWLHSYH
Procedure: Two-electrode voltage-clamp electrophysiology recordings were done in Xenopus laevis oocytes injected with approximately 25 ng cRNA. After injection, oocytes were incubated at 17° C. for 2-3 days. During measurements, an oocyte was placed in a custom designed recording chamber where compound solutions are added directly to the oocyte via a glass capillary. Compound solutions were prepared on the day of measurement and applied to oocytes with a flowrate of 2.0 ml/min. All datasets were baseline subtracted and responses to individual applications were read as peak current amplitudes. Concentration response relationships describing compound effect at a fixed acetylcholine concentration were fitted to a monophasic Hill-equation. Potency (EC50) and efficacy values (fitted maximal current relative to maximal current of acetylcholine).

T1 sequence (P43681 29-627 limits assumed): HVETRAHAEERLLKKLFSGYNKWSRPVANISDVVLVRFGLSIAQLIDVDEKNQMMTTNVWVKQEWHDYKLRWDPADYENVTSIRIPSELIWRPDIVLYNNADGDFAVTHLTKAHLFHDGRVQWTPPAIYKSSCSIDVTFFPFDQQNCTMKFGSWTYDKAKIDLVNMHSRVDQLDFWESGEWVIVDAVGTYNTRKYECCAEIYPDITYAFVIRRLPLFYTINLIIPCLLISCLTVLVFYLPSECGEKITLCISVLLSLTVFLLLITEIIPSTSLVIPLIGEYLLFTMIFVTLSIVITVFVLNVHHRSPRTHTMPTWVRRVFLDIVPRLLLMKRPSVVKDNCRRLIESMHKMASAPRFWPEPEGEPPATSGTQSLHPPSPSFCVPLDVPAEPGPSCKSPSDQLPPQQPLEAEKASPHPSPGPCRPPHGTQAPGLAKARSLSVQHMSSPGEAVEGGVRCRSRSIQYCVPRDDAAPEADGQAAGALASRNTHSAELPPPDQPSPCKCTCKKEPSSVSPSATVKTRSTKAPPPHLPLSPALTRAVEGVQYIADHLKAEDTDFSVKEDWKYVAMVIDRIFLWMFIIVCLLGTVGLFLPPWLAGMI
T1 sequence (P17787 26-502): as the sequence (P17787 26-502, further chain) above

In the case of `CN1C2CCCC1CN(c1cccnc1)C2` [9-methyl-3-pyridin-3-yl-3,9-diaza-bicyclo[3.3.1]nonane], the “dose giving half maximal displacement of specific binding of 3H-epibatidin” value (nicotinic receptors) is reported as 0.15 mg/kg, the efficacy [1] is reported as “practically no efficacy” and the “neuroprotective effect, number of TH positive neurons” value [2] is reported as “concentration-dependent neuroprotective effect”. For the same compound, the Emax (α6/α3β2β3^V273S receptor) was 27%.

— patent publication US20180311238A1, “Selective Agonist Of a6 Containing nAChRs” (Saniona A/S, priority 2017, published 2018)
